Test results taken from patent US12390423B2 (priority 2019, dated 2025).

Legend:
[1] = Intraperitoneal glucose and insulin tolerance tests (GTT, ITT) and HOMA-IR in DIO mice; assay type: in vivo, C57BL/6J mice; settings: HFD mice, AvoB 100 mg/kg b.w. twice weekly
Method: Intraperitoneal glucose and insulin tolerance tests (GTT and ITT) were performed 8 hours after food withdrawal. For GTT, a glucose dose of 1.5 g/kg was used for mice on both HFD and standard diet. For ITT, an insulin (Humulin, Eli Lilly, USA) dose of 1 U/kg and 0.25 U/kg was used for mice on HFD and standard diet, respectively. Blood glucose levels were determined at 0, 10, 20, 30, 60, and 90 minutes after glucose/insulin administration via tail bleed using the OneTouch Blood Ultra 2 glucose meters (LifeScan Europe, Switzerland).
The homeostasis model assessment was used to calculate the insulin resistance (HOMA-IR) index^60 using the values of fasting plasma glucose (FPG) and fasting plasma insulin (FPI) as follows: […]; HOMA-IR=FPGxFPI/22.5, with FPG expressed as mmol/L and FPI as mIU/L.

[2] = tested on: insulin signaling (pAkt-Ser473), MAPK, AMPK; test: Immunoblotting (pAkt, pERK1/2, pP38, pAMPKα, PGC-1α) and NAO mitochondrial mass in C2C12 myotubes; assay type: cell-based, mouse
Method: For all ROS studies, INS-1 (832/13) cells and C2C12 myotubes were treated with or without palmitate and FAO inhibitors for 24 h in low glucose cell culture media as described for the FAO assay. After treatment, cells were trypsinized and re-suspended in PBS containing 5 μM of the fluorescent dye MitoSOX® (Molecular Probes, Invitrogen) and allowed to incubate for 5-15 minutes in a humidified atmosphere containing 5% CO2 at 37° C. Cells were then washed in PBS, placed in a 96 well plate and fluorescence was measured by flow cytometry. ROS was quantified by normalizing the mean fluorescence values of live gated cells to vehicle control. Mitochondrial membrane potential (MMP) in INS-1 (832/13) and C2C12 myotubes was measured using the cationic fluorescent dye JC-1 (Molecular Probes). JC-1 accumulates in the mitochondrial matrix in an MMP dependent manner. JC-1 fluoresces green in the cytosol where it exists as a monomer, after entering the mitochondria JC-1 monomers form J aggregates and fluoresce red, thus the red/green fluorescence ratio is used to determine MMP. After all treatments, cells were washed, trypsinized and re-suspended in PBS containing 1 μM JC-1 and allowed to incubate for 5-10 minutes in a humidified atmosphere containing 5% CO2 at 37° C. Cells were then washed in PBS, placed in a 96 well plate and fluorescence was measured by flow cytometry. MMP was quantified by normalizing the mean fluorescence values of live gated cells to vehicle control. Mitochondrial mass was measured using 10-N-nonyl acridine orange (NAO; Enzo Life Sciences, ENZ-52306), which accumulates in the mitochondria in an MMP-independent manner where it binds to cardiolipin in the inner mitochondrial membrane. Cells were treated, washed and collected as described and incubated with 0.35 μM NAO and green fluorescence was measured using flow cytometry. In all analysis (ROS, MMP and mitochondrial mass), forward vs side scatter plots were gated to exclude debris (e.g., dead cells), as cell death is associated with increased ROS and altered membrane potentials. For all cell culture experiments, after drug treatments cells were washed with chilled phosphate-buffered saline (PBS), and lysed in chilled lysis buffer with 1× protease inhibitor cocktail (Sigma). RIPA lysis buffer (Sigma-Aldrich) was used for INS-1 (832/13) cells and muscle lysis buffer for C2C12 myotubes (20 mM HEPES, 10 mM NaCl, 1.5 mM MgCl2, 1 mM DTT, 20% glycerol, and 0.1% Triton-X100). Cells were scraped, mechanically homogenized using a syringe and centrifuged at 14,000×g for 20 min at 4° C. and the supernatants were collected. For preparation of all gastrocnemius muscle lysates, 10 mg frozen tissue (wet weight) was washed in chilled PBS, placed in a dounce homogenizer, lysed in muscle lysis buffer and centrifuged at 14,000×g for 20 min at 4° C. and the supernatant was collected. Protein content for cell and tissue lysates was measured using the BCA protein assay kit (ThermoFisher) according to manufacturer's protocol. Thirty μg protein lysates were prepared in loading buffer and immunoblotting was performed by heating lysates for 5 minutes at 95° C. and subjecting them to gel electrophoresis on 10% SDS-polyacrylamide gels at 150 V for 75 minutes. Using a semi-dry transfer apparatus (Bio-Rad) the gels were then transferred at 25V for 45 minutes to a PVDF membrane and blocked with 5% BSA (Sigma) in tris-buffered saline-tween (TBS-T) for 1 hour. […]

C2C12 myotubes = test: Glucose oxidation and 2-NBDG glucose uptake in C2C12 myotubes; assay type: cell-based, mouse
Method: C2C12 myotubes and INS-1 (832/13) cells treated as in the FAO assays described above and then incubated with D-[^14C(U)]-glucose (0.58 μC/mL) and unlabeled glucose (final glucose concentration 200 μM) for 4 h subsequent to which [^14C]—CO2 (representing complete glucose oxidation) and ASMs (representing incomplete glucose oxidation) were captured and quantified as described in the FAO method. For C2C12 myotubes, glucose oxidation and uptake was measured with and without a 30 min pre-incubation with 100 nM insulin to determine basal and insulin-mediated glucose oxidation or uptake, respectively.
To measure glucose uptake in C2C12 myotubes, a fluorescent D-glucose analog 2-(N-[7-nitrobenz-2-oxa-1,3-diazol-4-yl]amino)-2-deoxy-D-glucose (2-NBDG) was utilized. Briefly, myotubes were treated for 24 h with test compound after which they were washed twice with PBS and starved for 1 h in serum and glucose free DMEM. Following starvation, 100 nM insulin was added for 30 min after which 60 μM 2-NBDG was added to each well and allowed to incubate for 30 min. The 2-NBDG uptake reaction was then stopped by removing the incubation medium and washing the cells twice with PBS after which the cells were trypsinized and collected for flow cytometry analysis (Guava 8HT; EMD Millipore, Billerica, MA).

avocatin B [AvoB]
HOMA-IR index [1]: comparable to lean, STD mice | Glucose tolerance (GTT, AUC) ([1]; vs HFD-control, i.p. glucose 1.5 g/kg): significantly improved glucose tolerance | Whole body insulin sensitivity (ITT, AUC) ([1]; vs HFD-control, i.p. insulin): greater insulin sensitivity | Palmitate induced phosphorylation of MAPK ERK1/2 and P38 ([2]; 25 μM AvoB, 0.5 mM palmitate, 24 h): reduce palmitate induced phosphorylation | AMPK activation (pAMPKα-Thr172) ([2]; 25 μM AvoB, 24 h): independent of AMPK activation | Mitochondrial biogenesis (PGC-1α protein, NAO dye) ([2]; 25 μM AvoB, 24 h): independent | Insulin signaling (insulin stimulated phosphorylation of AKT Ser473) ([2]; 0.5 mM palmitate 24 h, 100 nM insulin 30 min, AvoB 25 μM, DCA 1 mM, TRI 25 μM): restore the suppressive effects of lipotoxicity on insulin stimulated phosphorylation of AKT^Ser473 | Insulin stimulated glucose uptake (2-NDBG) (C2C12 myotubes; 25 μM AVO, 0.5 mM palmitate 24 h, vs palmitate only): increased glucose uptake compared to palmitate only treated cells | Basal and insulin stimulated glucose oxidation (D-[14C(U)]-glucose to CO2) (C2C12 myotubes; 25 μM AvoB, excess palmitate, 24 h): increased basal and insulin stimulated glucose oxidation
